Test results reported in patent US6265450A, “Anti-stress composition” (Suntory Limited, priority 1995, dated 2001).
Like-named read-outs stand apart in the source and are kept apart here.

What was measured:
thymus weight = test: Effect of restraint stress on decreased thymus weight; type: in vivo, male C57BL/6 mice; settings: Astaxanthin (Roche) in MCT; for minimal effective dose: Mus musculus, po
From the text: Six week old, male C57BL/6 mice were purchased from Japan Clea Co., Ltd., and after preliminarily keeping for 1 week in an SPF (specific pathogen free) environment, were used in the experiment at age 7 weeks.
The mice were divided into a restrained group (16 mice) and a non-restrained group (5 mice). The unrestrained group was used as a control group. The restrained group was further divided into 4 groups of 4 mice each, and designated as the restrained control group, vitamin E group, β-carotene group and astaxanthin group. The restrained groups were restrained for 20 hours in metal restraint cages under conditions of minimal body movement and access to drinking water to induce restraint stress.
ASTAX 5000 manufactured by Itano Refrigated Food Co., Ltd. (containing 3.57% astaxanthin diester and 1.53% astaxanthin monoester), extracted and purified from krill, was used for astaxanthin. ASTAX 5000 was dissolved in medium chain fatty acid triglyceride (MCT) to a concentration of 100 mg/10 ml as astaxanthin content and used as the test substance solution. Vitamin E and β-carotene were dissolved in MCT, and MCT only was administered to the control group. The test substances were given orally three times on the day before restraint, immediately after restraint, and on the day after restraint at a dose of 100 mg/kg, for each test substance.
The mice were sacrificed by dislocation of the cervical vertebra 48 hours after the start of restraint. The thymus gland was excised and weighed.
Astaxanthin (Roche) was dissolved in MCT to astaxanthin concentrations of 0.04 mg/10 ml, 0.2 mg/10 ml, 1.0 mg/10 ml and 5.0 mg/10 ml to prepare the test substance solutions.
Thymus weight and spleen-origin NK cell activity were measured using the same procedures as described in Examples 1 and 2.

P815 mastocytoma = test: Effect of restraint stress on promotion of cancer metastasis (transplanted nodes on liver surface); type: in vivo, male DBA/2 mice; settings: Roche synthetic astaxanthin, 1 mg/kg by gavage three times in MCT; 16 days after transplantation; FIG. 7
Protocol: 7 week old, male DBA/2 mice were purchased from Japan Clea Co., Ltd., and after housing on a preliminary basis for 1 week in a specific pathogen free (SPF) atmosphere, the animals were used in the experiment at age 8 weeks.
The experimental mice were divided into three groups consisting of a restraint stress non-loaded control group (8 mice), a restraint stress loaded control group (8 mice) and a restraint stress loaded astaxanthin group (9 mice). Astaxanthin was administered orally by gavage three times on the day before restraint, immediately after the start of restraint and the day after the start of restraint at a dose of 1 mg/kg (MCT solution) each. Roche astaxanthin, a synthetic form of astaxanthin, was used for the test substance, while the control groups were orally administered MCT only three times by gavage. Restraint stress loading was performed under the same conditions as Example 1.
Mastocytoma subcultured in the abdominal cavities of DBA/2 mice in this laboratory was used for the P815 mastocytoma (DBA/2 mouse cutaneous mastocytoma). 1×10^4 cells/animal were transplanted into the caudal vein of each animal. […] The liver was excised 16 days after transplantation and after Vaughn's fixation, the number of transplanted nodes on the liver surface was measured.

cancer cell = settings: cited from earlier work
antibody production = settings: cited from earlier work
[1] = cited from earlier work

CC1=C(/C=C/C(C)=C/C=C/C(C)=C/C=C/C=C(C)/C=C/C=C(C)/C=C/C2=C(C)C(=O)[C@@H](O)CC2(C)C)C(C)(C)C[C@H](O)C1=O [astaxanthin]
inhibitory effect on decreases in thymus weight caused by stress loading (thymus weight; 0.04-5.0 mg/10 ml, FIG. 5): dose-dependent inhibitory effects | minimal effective dose (thymus weight; FIG. 5, read-out: doses at which the effect on decreased thymus weight was significant): ≥ 1 mg/kg | minimal effective dose (thymus weight; suggested by thymus weight and NK cell activity, read-out: minimum effective dose of the anti-stress effect): ~1 mg/kg | inhibition of promotion of cancer metastasis caused by stress (P815 mastocytoma): remarkable inhibition of promotion of cancer metastasis | cancer cell growth inhibitory activity (cancer cell): cancer cell growth inhibitory activity | antibody production activity (antibody production): antibody production activity | oxidation and decomposition in air [1]: easily oxidized and decompose relatively easily in air
